Starred links: 1 amine or outer side, 2 acyl side, 3 side chain; linkers in the order of their positions; H or OH if unused. Positions of bridges follow the written chain, without caps; N, C: chain ends. Residues, ends and D or L forms follow the SMILES beside them. *: point of attachment. C20 diacid = O=C(O)CCCCCCCCCCCCCCCCCCC(=O)*; γGlu = O=C(O)[C@H](CCC(=O)[*:2])N[*:1]
What was measured:
ad libitum fed rat = test: Assay (I) efficacy testing on appetite (food intake) using an ad libitum fed rat model; format: in vivo, Sprague Dawley (SD) rats; details: 3 nmol/kg
Excerpt: In the following examples reference is made to the following Assays: • Assay (I)—Experimental protocol for efficacy testing on appetite using an ad libitum fed rat model • ASSAY (II)a—Functional assay—Human calcitonin and amylin receptor assay • ASSAY (II)b—Functional assay—Rat calcitonin and rat amylin receptor assays • ASSAY (III)—ThT fibrillation assays for the assessment of physical stability of protein formulations • ASSAY (IV)—Determination of solubility • ASSAY (V)—Determination of binding to the human amylin receptor • ASSAY (VI)—Determination of the binding to the rat amylin receptor • ASSAY (VII)—Determination of binding to the human calcitonin receptor • ASSAY (VIII)—Determination of binding to the rat calcitonin receptor • ASSAY (IX)—pK—Determination of T½ in mini-pig • ASSAY (X)—pK—Determination of T½ in rat Assay (I)—Experimental protocol for Efficacy Testing on Appetite Using an Ad Libitum Fed Rat Model
Sprague Dawley (SD) rats from Taconic Europe, Denmark are used for the experiments. The rats have a body weight 200-250 g at the start of experiment. The rats arrive at least 10-14 days before start of experiment to allow acclimatization to experimental settings. During this period the animals are handled at least 2 times. After arrival rats are housed individually for one week in a reversed light/dark phase (meaning that lights are off during daytime and on during nighttime) […]. Since rats are normally active and eat their major part of their daily food intake during the dark period, rats are dosed in the morning right before lights are turned off. This set-up results in the lowest data variation and highest test sensitivity. The experiment is conducted in the rats' home cages and rats have free access to food and water throughout the acclimatization period and the experiment period. Each dose of derivative is tested in a group of 5-8 rats. A vehicle group of 6-8 rats is included in each set of testing. Rats are dosed once according to body weight with a 0.01-3 mg/kg solution administered intraperitoneally (ip), orally (po) or subcutaneously (sc). The time of dosing is recorded for each group. After dosing, the rats are returned to their home cages, where they then have access to food and water. The food consumption is recorded individually continuously by on-line registration or manually every hour for 7 hours, and then after 24 h and sometimes 48 h. At the end of the experimental session, the animals are euthanised.
The individual data are recorded in Microsoft excel sheets. Outliers are excluded after applying the Grubbs statistical evaluation test for outliers, and the result is presented graphically using the GraphPad Prism program.

[1] = Assay (III) ThT fibrillation assay for physical stability; format: physicochemical; details: for ThT pH 4.0 lag time: pH 4.0, ThT fibrillation assay
Outline: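 Freshly prepared, pH-adjusted formulations with 1 μM ThT incubated at 37 °C under 960 rpm orbital shaking (1 mm), fluorescence (ex 444, em 485 nm) read every 20 min. […] Peptide content before and after measured by reverse-phase HPLC against pramlintide standard.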

Row | Compound | Food intake reduction 0-24 h 3 nmol/kg (%) (ad libitum fed rat; 0-24 h) | Food intake reduction 24-48 h 3 nmol/kg (%) (ad libitum fed rat; 24-48 h) | ThT pH 4.0 lag time (physical stability in fibrillogenesis assay) ([1]; pH 4.0) | ThT pH 4.0 lag time [1]
1 | CC[C@H](C)[C@H](NC(=O)[C@@H]1CCCN1C(=O)CNC(=O)[C@H](Cc1ccccc1)NC(=O)[C@H](CC(N)=O)NC(=O)[C@H](CC(N)=O)NC(=O)[C@H](CO)NC(=O)[C@H](CO)NC(=O)[C@H](Cc1c[nH]cn1)NC(=O)[C@H](Cc1c[nH]cn1)NC(=O)[C@H](CC(C)C)NC(=O)[C@H](Cc1ccccc1)NC(=O)[C@H](CCC(=O)O)NC(=O)[C@H](C)NC(=O)[C@H](CC(C)C)NC(=O)[C@H](CCCNC(=N)N)NC(=O)[C@H](CCC(N)=O)NC(=O)[C@@H](NC(=O)[C@H](C)NC(=O)[C@@H]1CSSC[C@H](NC(=O)[C@H](CCCCN)NC(=O)CC[C@H](NC(=O)CCCCCCCCCCCCCCCCCCC(=O)O)C(=O)O)C(=O)N[C@@H](CC(N)=O)C(=O)N[C@@H]([C@@H](C)O)C(=O)N[C@@H](C)C(=O)N[C@@H]([C@@H](C)O)C(=O)N1)[C@@H](C)O)C(=O)N[C@@H](CC(C)C)C(=O)N1CCC[C@H]1C(=O)N1CCC[C@H]1C(=O)N[C@H](C(=O)N[C@@H](CC(N)=O)C(=O)N[C@H](C(=O)NCC(=O)N[C@@H](CO)C(=O)N[C@@H](CC(N)=O)C(=O)N[C@H](C(=O)N[C@@H](Cc1ccc(O)cc1)C(N)=O)[C@@H](C)O)C(C)C)[C@@H](C)O [Example 27, N-alpha-[(S)-4-Carboxy-4-(19-carboxynonadecanoylamino)butyryl]-[Glu14,His17]-pramlintide] ({C20 diacid-γGlu}-KCNTATCATQRLAEFLHHSSNNFGPILPPTNVGSNTY-NH2; disulfide 2-7 (inferred)) | 56% | 53% | – | –
2 | CC[C@H](C)[C@H](NC(=O)[C@@H]1CCCN1C(=O)CNC(=O)[C@H](Cc1ccccc1)NC(=O)[C@H](CC(N)=O)NC(=O)[C@H](CC(N)=O)NC(=O)[C@H](CO)NC(=O)[C@H](CO)NC(=O)[C@H](Cc1c[nH]cn1)NC(=O)[C@H](CCCNC(=N)N)NC(=O)[C@H](CC(C)C)NC(=O)[C@H](Cc1ccccc1)NC(=O)[C@H](CCC(=O)O)NC(=O)[C@H](C)NC(=O)[C@H](CC(C)C)NC(=O)[C@H](CCCNC(=N)N)NC(=O)[C@H](CCC(N)=O)NC(=O)[C@@H](NC(=O)[C@H](C)NC(=O)[C@@H]1CSSC[C@H](NC(=O)[C@H](CCCCN)NC(=O)[C@H](CCC(=O)O)NC(=O)CC[C@H](NC(=O)CCCCCCCCCCCCCCCCCCC(=O)O)C(=O)O)C(=O)N[C@@H](CC(N)=O)C(=O)N[C@@H]([C@@H](C)O)C(=O)N[C@@H](C)C(=O)N[C@@H]([C@@H](C)O)C(=O)N1)[C@@H](C)O)C(=O)N[C@@H](CC(C)C)C(=O)N1CCC[C@H]1C(=O)N1CCC[C@H]1C(=O)N[C@H](C(=O)N[C@@H](CC(N)=O)C(=O)N[C@H](C(=O)NCC(=O)N[C@@H](CO)C(=O)N[C@@H](Cc1c[nH]cn1)C(=O)N[C@H](C(=O)N[C@@H](Cc1ccc(O)cc1)C(N)=O)[C@@H](C)O)C(C)C)[C@@H](C)O [Example 58, N-alpha-[(S)-4-Carboxy-4-(19-carboxynonadecanoylamino)butyryl]-Glu-[Glu14,Arg17,His35]-pramlintide] ({C20 diacid-γGlu}-EKCNTATCATQRLAEFLRHSSNNFGPILPPTNVGSHTY-NH2; disulfide 3-8 (inferred); C-terminus assumed) | – | – | >45 h | >45 h
3 | CC[C@H](C)[C@H](NC(=O)[C@@H]1CCCN1C(=O)CNC(=O)[C@H](Cc1ccccc1)NC(=O)[C@H](CC(N)=O)NC(=O)[C@H](CC(N)=O)NC(=O)[C@H](CO)NC(=O)[C@H](CO)NC(=O)[C@H](Cc1c[nH]cn1)NC(=O)[C@H](Cc1c[nH]cn1)NC(=O)[C@H](CC(C)C)NC(=O)[C@H](Cc1ccccc1)NC(=O)[C@H](CCC(=O)O)NC(=O)[C@H](C)NC(=O)[C@H](CC(C)C)NC(=O)[C@H](CCCNC(=N)N)NC(=O)[C@H](CCC(N)=O)NC(=O)[C@@H](NC(=O)[C@H](C)NC(=O)[C@@H]1CSSC[C@H](NC(=O)CNC(=O)CC[C@H](NC(=O)CCCCCCCCCCCCCCCCCCC(=O)O)C(=O)O)C(=O)N[C@@H](CC(N)=O)C(=O)N[C@@H]([C@@H](C)O)C(=O)N[C@@H](C)C(=O)N[C@@H]([C@@H](C)O)C(=O)N1)[C@@H](C)O)C(=O)N[C@@H](CC(C)C)C(=O)N1CCC[C@H]1C(=O)N1CCC[C@H]1C(=O)N[C@H](C(=O)N[C@@H](CC(N)=O)C(=O)N[C@H](C(=O)NCC(=O)N[C@@H](CO)C(=O)N[C@@H](Cc1c[nH]cn1)C(=O)N[C@H](C(=O)N[C@@H](Cc1ccc(O)cc1)C(N)=O)[C@@H](C)O)C(C)C)[C@@H](C)O [Example 105, N-alpha-[(S)-4-Carboxy-4-(19-carboxynonadecanoylamino)butyryl]-[Gly1,Glu14,His17,His35]-pramlintide] ({C20 diacid-γGlu}-GCNTATCATQRLAEFLHHSSNNFGPILPPTNVGSHTY-NH2; disulfide 2-7) | – | – | – | 26 h
4 | CC[C@H](C)[C@H](NC(=O)[C@@H]1CCCN1C(=O)CNC(=O)[C@H](Cc1ccccc1)NC(=O)[C@H](CC(N)=O)NC(=O)[C@H](CC(N)=O)NC(=O)[C@H](CO)NC(=O)[C@H](CO)NC(=O)[C@H](Cc1c[nH]cn1)NC(=O)[C@H](Cc1c[nH]cn1)NC(=O)[C@H](CC(C)C)NC(=O)[C@H](Cc1ccccc1)NC(=O)[C@H](CCC(=O)O)NC(=O)[C@H](C)NC(=O)[C@H](CC(C)C)NC(=O)[C@H](CCCNC(=N)N)NC(=O)[C@H](CCC(N)=O)NC(=O)[C@@H](NC(=O)[C@H](C)NC(=O)[C@@H]1CSSC[C@H](NC(=O)CC[C@H](NC(=O)CCCCCCCCCCCCCCCCCCC(=O)O)C(=O)O)C(=O)N[C@@H](CC(N)=O)C(=O)N[C@@H]([C@@H](C)O)C(=O)N[C@@H](C)C(=O)N[C@@H]([C@@H](C)O)C(=O)N1)[C@@H](C)O)C(=O)N[C@@H](CC(C)C)C(=O)N1CCC[C@H]1C(=O)N1CCC[C@H]1C(=O)N[C@H](C(=O)N[C@@H](CC(N)=O)C(=O)N[C@H](C(=O)NCC(=O)N[C@@H](CO)C(=O)N[C@@H](Cc1c[nH]cn1)C(=O)N[C@H](C(=O)N[C@@H](Cc1ccc(O)cc1)C(N)=O)[C@@H](C)O)C(C)C)[C@@H](C)O [Example 75, N-alpha-[(S)-4-Carboxy-4-(19-carboxynonadecanoylamino)butyryl]-[des1,Glu14,His17,His35]-pramlintide] ({C20 diacid-γGlu}-CNTATCATQRLAEFLHHSSNNFGPILPPTNVGSHTY-NH2; disulfide 1-6) | – | – | – | 28 h
5 | CC[C@H](C)[C@H](NC(=O)[C@@H]1CCCN1C(=O)CNC(=O)[C@H](Cc1ccccc1)NC(=O)[C@H](CC(N)=O)NC(=O)[C@H](CC(N)=O)NC(=O)[C@H](CO)NC(=O)[C@H](CO)NC(=O)[C@H](Cc1c[nH]cn1)NC(=O)[C@H](Cc1c[nH]cn1)NC(=O)[C@H](CC(C)C)NC(=O)[C@H](Cc1ccccc1)NC(=O)[C@H](CCC(=O)O)NC(=O)[C@H](C)NC(=O)[C@H](CC(C)C)NC(=O)[C@H](CCCNC(=N)N)NC(=O)[C@H](CCC(N)=O)NC(=O)[C@@H](NC(=O)[C@H](C)NC(=O)[C@@H]1CSSC[C@H](NC(=O)[C@H](CCCCN)NC(=O)CC[C@H](NC(=O)CCCCCCCCCCCCCCCCCCC(=O)O)C(=O)O)C(=O)N[C@@H](CC(N)=O)C(=O)N[C@@H]([C@@H](C)O)C(=O)N[C@@H](C)C(=O)N[C@@H]([C@@H](C)O)C(=O)N1)[C@@H](C)O)C(=O)N[C@@H](CC(C)C)C(=O)N1CCC[C@H]1C(=O)N1CCC[C@H]1C(=O)N[C@H](C(=O)N[C@@H](CC(N)=O)C(=O)N[C@@H](Cc1c[nH]cn1)C(=O)NCC(=O)N[C@@H](CO)C(=O)N[C@@H](CC(N)=O)C(=O)N[C@H](C(=O)N[C@@H](Cc1ccc(O)cc1)C(N)=O)[C@@H](C)O)[C@@H](C)O [Example 116, N-alpha-[(S)-4-Carboxy-4-(19-carboxynonadecanoylamino)butyryl]-[Glu14,His17,His32]-pramlintide] ({C20 diacid-γGlu}-KCNTATCATQRLAEFLHHSSNNFGPILPPTNHGSNTY-NH2; disulfide 2-7) | – | – | – | >45 h

From patent US8741836B2, “Polypeptides” (Novo Nordisk A/S, priority 2011, dated 2014)
